Measurements from patent publication US20040057908A1, “Oral compositions and use thereof” (priority 2003, published 2004).
Read-outs that look alike come from different tables or passages of the source. Blank lines part the entries; values can stand above or below the compound they belong to.

Experiments:
[1] = test system: Mutans Streptococci Strains; assay: MIC and MBC, broth dilution, all strains stated together; format: cell-based, S. mutans (GS-5 and UA159) and S. sobrinus 6715; details: Streptococcus mutans
Protocol: The minimum inhibitory concentration (MIC) and minimum bactericidal concentration (MBC) were determined for each test compound according to the National Committee for Clinical Laboratory Standards guidelines (Tentative standard M26-T, 1992; NCCLS Publication No. M7-A5, 2000) and Koo et al. (2000b). The broth microdilution and macrodilution methods (in TSB) were used for the antibacterial tests. The starting inoculum was 5×10^5 CFU/ml and the concentrations of test compounds ranged from 15.6 to 500 μM (two-fold dilutions). The MICs and MBCs were determined in quadruplicate in at least 3 different experiments.

streptococcal GTFs = test system: T1, streptococcal GTFs; assay: GTF activity in solution, all GTFs (B, C, D, Ss) stated together; format: biochemical, Streptococcus mutans, S. sanguinis; details: 125 to 500 μM; solution and surface not told apart
T1 construct: Streptococcus milleri KSB8, which harbors the gtfB gene from S. mutans GS-5 (for GTF B production)
Protocol: The GTF enzyme added to each sample for all assays was equivalent to the amount required to incorporate 1.0-1.5 μmol of glucose over the four hours reaction (1.0-1.5 units).
The samples were incubated 37° C. with rocking for 4 h.
For this assay, a one-way layout experimental design was used in 4×2×7 factorial scheme (enzyme×state×dose). An analysis of variance was carried out and qualitative treatments were compared using Tukey test at level of 5% of significance (p<0.05). A non-linear regression was applied in order to evaluate effects of different concentrations.

GTF D [2] = biological target: T2, GTF D (Streptococcus mutans serotype c, UniProt P49331); assay: GTF activity adsorbed onto sHA surface, GTF D; format: biochemical; details: read-out: GTF D surf. % of Inhib.
T2 construct: made in house; host or cells: Streptococcus milleri NH5 (culture supernatant)
Protocol: (§1) Glucosyltransferase activity was measured by the incorporation of [^14C-glucose] from labeled sucrose (NEN Research Products, Boston, Mass.) into glucans (Germaine et al., 1974; Venkitaraman et al., 1995). The GTF enzyme added to each sample for all assays was equivalent to the amount required to incorporate 1.0-1.5 μmol of glucose over the four hours reaction (1.0-1.5 units).
(§2) For surface assays, the GTFs were adsorbed to hydroxyapatite beads coated with clarified whole saliva (free of GTF activity), as detailed elsewhere (Koo et al., 2000c; Schilling and Bowen, 1988, Venkitaraman et al., 1995). The saliva-coated hydroxyapatite (sHA) beads were exposed to sufficient enzyme to saturate the surface as determined experimentally. Following the adsorption of the enzyme, the beads were washed 3 times with buffer to remove the loosely bound material and exposed to 300 μl of the two-fold dilution series of test compounds (or control) for 30 min. at the same concentrations described above. The beads were washed and exposed to 300 μl [^14C-glucose]-sucrose substrate (100.0 mmol/l sucrose, final concentration). The radiolabeled glucan formed was collected and quantified by scintillation counting (Germaine et al., 1974; Venkitaraman et al., 1995). All the solution and surface assays were done in quadruplicate in at least 3 different experiments.

GTF B [3] = biological target: T3, GTF B (Streptococcus mutans serotype c, UniProt P08987); assay: GTF activity in solution, GTF B; format: biochemical; details: read-out: GTF B sol. % of Inhib.
T3 construct: made in house; host or cells: Streptococcus milleri KSB8 (culture supernatant)
Protocol: as §1
(§3) For solution assays, purified GTF B, C, D and Ss were mixed with a two-fold dilution series of the test compounds (concentration ranging from 125 to 500 μM) and incubated with [^14C-glucose]-sucrose substrate (0.2 μCi/ml) (200.0 mmol/l sucrose, 40 μmol/l dextran 9000, 0.02% sodium azide in adsorption buffer—50 mM KCl, 1.0 mM KPO4, 1.0 mM CaCl2, 0.1 mM MgCl2−pH=6.5) to reach a final concentration of 100 mmol/l sucrose (200 μl final volume). For the control, the same reaction was carried out, where ethanol:DMSO (final concentration of 7.5% and 1.25%, v/v) or ethanol (final concentration of 5%, v/v) replaced the test agent solutions. The samples were incubated 37° C. with rocking for 4 h. After incubation, ice-cold ethanol (1.0 ml) was added and the samples were stored for 18 h, 4° C. for precipitation of glucans. Radiolabeled glucan was determined by scintillation counting (Germaine et al., 1974; Venkitaraman et al., 1995).

GTF B [4] = biological target: T3, GTF B; assay: GTF activity adsorbed onto saliva-coated hydroxyapatite (sHA) surface, GTF B; format: biochemical; details: read-out: GTF B surf. % of Inhib.
Protocol: as §1, §2

GTF C [5] = biological target: T4, GTF C (Streptococcus mutans serotype c, UniProt P13470); assay: GTF activity in solution, GTF C; format: biochemical; details: read-out: GTF C sol. % of Inhib.
T4 construct: The supernatant was carefully collected as the source of GTF C; made in house; host or cells: Streptococcus mutans WHB 410 (endogenous gtfC; urea/Triton extract of washed cells, hydroxyapatite chromatography)
Protocol: as §1, §3

GTF Ss [6] = biological target: T5, GTF Ss (Streptococcus sanguinis, UniProt A3CLJ9); assay: GTF activity in solution, GTF Ss; format: biochemical, S. sanguinis; details: read-out: GTF Ss sol. % of Inhib.
Protocol: as §1, §3

GTF C [7] = biological target: T4, GTF C; assay: GTF activity adsorbed onto sHA surface, GTF C; format: biochemical; details: read-out: GTF C surf. % of Inhib.
Protocol: as §1, §2

GTF Ss [8] = biological target: T5, GTF Ss; assay: GTF activity adsorbed onto sHA surface, GTF Ss; format: biochemical, S. sanguinis; details: read-out: GTF Ss surf. % of Inhib.
Protocol: as §1, §2

GTF D [9] = biological target: T2, GTF D; assay: GTF activity in solution, GTF D; format: biochemical; details: read-out: GTF D sol. % of Inhib.
Protocol: as §1, §3

T2 sequence (P49331 whole entry): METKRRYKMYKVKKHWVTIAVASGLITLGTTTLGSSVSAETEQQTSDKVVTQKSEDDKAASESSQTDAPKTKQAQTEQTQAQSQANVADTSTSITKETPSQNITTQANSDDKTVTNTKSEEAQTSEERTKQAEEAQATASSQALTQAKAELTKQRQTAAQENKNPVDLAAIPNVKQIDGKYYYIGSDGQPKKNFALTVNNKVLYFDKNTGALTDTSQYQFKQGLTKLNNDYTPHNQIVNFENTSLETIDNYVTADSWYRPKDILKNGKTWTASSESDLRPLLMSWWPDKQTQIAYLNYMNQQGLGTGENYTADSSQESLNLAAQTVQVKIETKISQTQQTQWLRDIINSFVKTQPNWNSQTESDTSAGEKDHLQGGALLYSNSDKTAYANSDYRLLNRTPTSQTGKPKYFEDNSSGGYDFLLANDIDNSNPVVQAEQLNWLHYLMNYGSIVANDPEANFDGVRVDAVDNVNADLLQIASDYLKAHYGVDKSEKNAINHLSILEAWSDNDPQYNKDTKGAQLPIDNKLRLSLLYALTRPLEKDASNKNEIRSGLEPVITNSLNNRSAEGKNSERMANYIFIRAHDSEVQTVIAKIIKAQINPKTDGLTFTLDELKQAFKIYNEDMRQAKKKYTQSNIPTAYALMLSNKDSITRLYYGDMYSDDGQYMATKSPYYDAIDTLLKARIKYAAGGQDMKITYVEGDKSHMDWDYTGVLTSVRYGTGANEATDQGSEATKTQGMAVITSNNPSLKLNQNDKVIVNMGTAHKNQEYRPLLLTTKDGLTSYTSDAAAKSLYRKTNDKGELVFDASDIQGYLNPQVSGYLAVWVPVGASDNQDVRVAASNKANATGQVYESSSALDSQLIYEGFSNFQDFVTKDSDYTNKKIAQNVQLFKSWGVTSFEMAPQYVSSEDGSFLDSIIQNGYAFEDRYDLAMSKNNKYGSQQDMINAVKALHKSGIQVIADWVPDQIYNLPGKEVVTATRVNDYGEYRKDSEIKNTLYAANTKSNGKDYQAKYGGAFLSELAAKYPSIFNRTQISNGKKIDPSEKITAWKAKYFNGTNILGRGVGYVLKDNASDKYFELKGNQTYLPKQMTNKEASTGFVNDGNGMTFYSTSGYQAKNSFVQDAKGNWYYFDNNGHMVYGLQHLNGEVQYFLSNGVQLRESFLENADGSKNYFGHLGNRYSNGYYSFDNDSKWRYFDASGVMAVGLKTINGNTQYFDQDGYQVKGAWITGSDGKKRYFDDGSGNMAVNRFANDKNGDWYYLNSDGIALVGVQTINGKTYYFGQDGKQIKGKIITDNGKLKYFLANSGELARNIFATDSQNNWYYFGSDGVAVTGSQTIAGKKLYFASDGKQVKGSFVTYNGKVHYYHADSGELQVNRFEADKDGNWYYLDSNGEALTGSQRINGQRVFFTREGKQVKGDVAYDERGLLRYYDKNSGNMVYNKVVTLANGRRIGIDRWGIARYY
T3 sequence (P08987 35-1476): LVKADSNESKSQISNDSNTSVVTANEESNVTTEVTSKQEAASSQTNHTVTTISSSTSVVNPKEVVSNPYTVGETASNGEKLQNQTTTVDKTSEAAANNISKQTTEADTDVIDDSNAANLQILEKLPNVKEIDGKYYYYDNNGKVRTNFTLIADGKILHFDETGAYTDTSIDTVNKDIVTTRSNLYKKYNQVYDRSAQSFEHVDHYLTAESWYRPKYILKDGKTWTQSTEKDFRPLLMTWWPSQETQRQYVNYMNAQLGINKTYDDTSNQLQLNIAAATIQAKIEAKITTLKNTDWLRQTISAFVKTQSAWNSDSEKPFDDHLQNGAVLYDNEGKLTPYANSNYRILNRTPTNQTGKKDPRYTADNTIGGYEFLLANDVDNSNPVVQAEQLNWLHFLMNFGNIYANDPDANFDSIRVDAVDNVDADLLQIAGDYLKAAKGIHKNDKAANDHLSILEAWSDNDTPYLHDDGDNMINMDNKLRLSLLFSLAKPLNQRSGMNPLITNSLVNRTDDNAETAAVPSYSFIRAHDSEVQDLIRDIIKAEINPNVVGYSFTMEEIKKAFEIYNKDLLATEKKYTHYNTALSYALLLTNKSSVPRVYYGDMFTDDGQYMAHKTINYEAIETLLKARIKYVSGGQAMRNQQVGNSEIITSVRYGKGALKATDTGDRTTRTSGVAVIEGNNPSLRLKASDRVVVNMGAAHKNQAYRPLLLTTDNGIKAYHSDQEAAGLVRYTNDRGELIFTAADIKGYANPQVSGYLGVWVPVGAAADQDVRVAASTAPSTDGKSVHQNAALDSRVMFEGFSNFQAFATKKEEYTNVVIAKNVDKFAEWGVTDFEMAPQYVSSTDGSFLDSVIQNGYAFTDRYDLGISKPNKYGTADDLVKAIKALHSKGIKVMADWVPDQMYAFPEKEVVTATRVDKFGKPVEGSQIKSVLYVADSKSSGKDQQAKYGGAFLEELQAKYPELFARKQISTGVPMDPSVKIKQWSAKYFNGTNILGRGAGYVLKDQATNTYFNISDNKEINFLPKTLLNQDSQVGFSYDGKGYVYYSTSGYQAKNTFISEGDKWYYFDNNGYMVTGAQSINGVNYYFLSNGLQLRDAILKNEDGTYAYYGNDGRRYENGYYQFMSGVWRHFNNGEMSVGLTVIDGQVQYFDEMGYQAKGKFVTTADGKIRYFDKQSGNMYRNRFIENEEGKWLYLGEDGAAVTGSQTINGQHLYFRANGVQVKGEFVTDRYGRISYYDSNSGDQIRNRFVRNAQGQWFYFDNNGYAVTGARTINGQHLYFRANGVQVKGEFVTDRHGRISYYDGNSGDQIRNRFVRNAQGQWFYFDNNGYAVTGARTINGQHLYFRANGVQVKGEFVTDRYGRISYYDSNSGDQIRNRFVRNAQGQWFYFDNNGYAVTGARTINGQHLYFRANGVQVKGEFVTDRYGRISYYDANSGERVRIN
T4 sequence (P13470 35-1455): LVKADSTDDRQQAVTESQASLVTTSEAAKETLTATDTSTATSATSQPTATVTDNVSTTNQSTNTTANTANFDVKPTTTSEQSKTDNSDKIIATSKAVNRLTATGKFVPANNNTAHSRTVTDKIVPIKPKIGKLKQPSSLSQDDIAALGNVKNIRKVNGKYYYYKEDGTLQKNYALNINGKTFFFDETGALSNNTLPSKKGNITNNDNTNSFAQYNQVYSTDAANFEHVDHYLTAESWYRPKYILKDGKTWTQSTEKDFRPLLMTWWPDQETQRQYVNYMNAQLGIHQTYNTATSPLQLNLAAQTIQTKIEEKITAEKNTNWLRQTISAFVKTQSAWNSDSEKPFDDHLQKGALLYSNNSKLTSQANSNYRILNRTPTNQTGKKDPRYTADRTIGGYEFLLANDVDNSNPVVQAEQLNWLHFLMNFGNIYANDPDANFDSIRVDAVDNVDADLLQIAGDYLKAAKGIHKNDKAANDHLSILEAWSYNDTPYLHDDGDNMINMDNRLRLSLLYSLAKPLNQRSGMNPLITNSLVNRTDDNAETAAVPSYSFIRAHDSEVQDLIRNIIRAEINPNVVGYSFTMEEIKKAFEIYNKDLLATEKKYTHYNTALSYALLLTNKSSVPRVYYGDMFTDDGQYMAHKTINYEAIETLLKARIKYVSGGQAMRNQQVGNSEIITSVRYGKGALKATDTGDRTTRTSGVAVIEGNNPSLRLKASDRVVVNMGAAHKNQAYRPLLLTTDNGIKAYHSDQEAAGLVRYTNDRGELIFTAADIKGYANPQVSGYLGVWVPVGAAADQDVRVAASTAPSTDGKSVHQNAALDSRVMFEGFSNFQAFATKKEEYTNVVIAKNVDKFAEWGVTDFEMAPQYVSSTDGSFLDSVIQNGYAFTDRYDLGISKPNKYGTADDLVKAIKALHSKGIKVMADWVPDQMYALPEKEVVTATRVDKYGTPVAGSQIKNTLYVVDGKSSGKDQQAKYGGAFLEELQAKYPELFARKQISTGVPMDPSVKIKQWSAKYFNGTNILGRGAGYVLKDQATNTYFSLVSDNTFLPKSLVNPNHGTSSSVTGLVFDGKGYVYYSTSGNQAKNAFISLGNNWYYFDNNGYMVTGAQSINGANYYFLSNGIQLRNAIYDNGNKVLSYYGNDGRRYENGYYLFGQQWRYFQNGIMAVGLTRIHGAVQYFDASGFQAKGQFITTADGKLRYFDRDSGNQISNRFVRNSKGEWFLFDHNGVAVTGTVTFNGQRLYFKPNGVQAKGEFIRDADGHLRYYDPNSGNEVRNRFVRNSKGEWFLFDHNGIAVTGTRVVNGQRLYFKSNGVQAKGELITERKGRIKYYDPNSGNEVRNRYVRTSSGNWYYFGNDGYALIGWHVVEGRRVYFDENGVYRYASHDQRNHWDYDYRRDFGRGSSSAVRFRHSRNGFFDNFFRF

Structure (SMILES): O=C(O)c1ccc(O)c(O)c1 [Protocatechuic acid]
MIC [1]: > 500 µM
effects on GTF enzymes (in words) (streptococcal GTFs): enhanced

MIC ([1]; all strains tested (S. mutans GS-5, UA159, S. sobrinus 6715), read-out: MIC): > 500 µM
Structure (SMILES): COc1cc(/C=C/C(=O)O)ccc1O [Ferulic acid]

Structure (SMILES): O=c1c(O)c(-c2ccc(O)cc2)oc2cc(O)cc(O)c12 [Kaempferol]
inhibition at 125 µM (GTF D [2]): 20.4%
inhibition at 250 µM (GTF D [2]): 23.5%
inhibition at 500 µM (GTF D [2]): 28.5%
inhibition at 125 µM (GTF B [3]): 32.4%
inhibition at 250 µM (GTF B [3]): 80.6%
inhibition at 500 µM (GTF B [3]): 90.4%
inhibition at 125 µM (GTF B [4]): 9.9%
inhibition at 250 µM (GTF B [4]): 27.8%
inhibition at 500 µM (GTF B [4]): 40.2%
inhibition at 125 µM (GTF C [5]): 41.9%
inhibition at 250 µM (GTF C [5]): 82.2%
inhibition at 500 µM (GTF C [5]): 90.2%
inhibition at 125 µM (GTF Ss [6]): 37.6%
inhibition at 250 µM (GTF Ss [6]): 43.1%
inhibition at 500 µM (GTF Ss [6]): 88.9%
inhibition at 125 µM (GTF C [7]): 24.2%
inhibition at 250 µM (GTF C [7]): 25.8%
inhibition at 500 µM (GTF C [7]): 35.2%
inhibition at 125 µM (GTF Ss [8]): 9.7%
inhibition at 250 µM (GTF Ss [8]): 8.8%
inhibition at 500 µM (GTF Ss [8]): 19.2%
MIC [1]: > 500 µM
inhibition at 125 µM (GTF D [9]): 39.1%
inhibition at 250 µM (GTF D [9]): 76.7%
inhibition at 500 µM (GTF D [9]): 86.7%
